Activity calls are given as the source filed them. How the calls were made is not given here.
How the values were obtained:
[1] = system: Fusobacterium nucleatum; assay: Antibiofilm activity against Fusobacterium nucleatum ATCC 25586 assessed as inhibition of biofilm formation up to 96 ug/mL after 24 hrs by crystal violet staining based assay; type: functional, organism-based
[2] = system: Porphyromonas gingivalis; assay: Antibiofilm activity against Porphyromonas gingivalis ATCC 33277 assessed as inhibition of biofilm formation up to 96 ug/mL after 24 hrs by crystal violet staining based assay; type: functional, organism-based
[3] = system: Streptococcus mutans; assay: Antibiofilm activity against Streptococcus mutans ATCC 25175 assessed as inhibition of biofilm formation up to 96 ug/mL after 24 hrs by crystal violet staining-based assay; type: functional, organism-based
[4] = system: Streptococcus mutans; assay: Inhibition of planktonic growth of Streptococcus mutans ATCC 25175 up to 96 ug/mL after 24 hrs relative to control; type: organism-based

SMILES | inhibition [1] | inhibition [2] | inhibition [3] | growth inhibition (GI) [4]
C[C@@H](OCc1ccccc1)[C@@H]1NC(=O)[C@H]([C@@H](C)OCc2ccccc2)NC1=O | inactive | inactive | inactive | Non-Toxic
CC(C)C[C@@H]1NC(=O)[C@@H](C(C)C)NC1=O | inactive | inactive | inactive | Non-Toxic
C[C@H]1NC(=O)[C@@H](C)NC1=O | inactive | inactive | inactive | Non-Toxic
O=C1N[C@@H](Cc2ccc([N+](=O)[O-])cc2)C(=O)N[C@H]1Cc1ccc([N+](=O)[O-])cc1 | inactive | inactive | inactive | Non-Toxic
O=C1[C@H]2CCCN2C(=O)[C@H]2CCCN12 | inactive | inactive | inactive | Non-Toxic
CCC(C)[C@@H]1NC(=O)[C@H](C(C)CC)NC1=O (some centres not stated) | inactive | inactive | inactive | Non-Toxic
O=C1[C@@H]2CCCN2C(=O)[C@H]2CCCN12 | inactive | inactive | inactive | Non-Toxic
O=C1N[C@@H](Cc2ccc(OCc3ccccc3)cc2)C(=O)N2CCC[C@@H]12 | inactive | inactive | inactive | Non-Toxic
CC(C)C[C@H]1NC(=O)[C@@H](Cc2ccc(OCc3ccccc3)cc2)NC1=O | inactive | inactive | inactive | Non-Toxic
O=C1CNC(=O)[C@H](Cc2ccccc2)N1 | inactive | inactive | inactive | Non-Toxic
N=C(N)N(CCC[C@@H]1NC(=O)[C@H](CCCCNC(=O)OCc2ccccc2)NC1=O)[N+](=O)[O-] | inactive | inactive | inactive | Non-Toxic
CC(C)C[C@@H]1NC(=O)[C@H](COCc2ccccc2)NC1=O | inactive | inactive | inactive | Non-Toxic
CC(C)[C@H]1NC(=O)[C@@H](C(C)C)NC1=O | inactive | inactive | inactive | Non-Toxic
NCCCC[C@@H]1NC(=O)[C@H](Cc2ccccc2)NC1=O | inactive | inactive | inactive | Non-Toxic
O=C1CNC(=O)[C@H](CCC(=O)OCc2ccccc2)N1 | inactive | inactive | inactive | Non-Toxic
CC(C)C[C@H]1NC(=O)[C@H](Cc2ccccc2)NC1=O | inactive | inactive | inactive | Non-Toxic
CC(C)C[C@@H]1NC(=O)[C@H](C(C)C)NC1=O | inactive | inactive | inactive | Non-Toxic
C[C@@H]1NC(=O)[C@H](Cc2ccccc2)NC1=O | inactive | inactive | inactive | Non-Toxic
CC(C)[C@@H]1NC(=O)[C@H](Cc2ccccc2)NC1=O | inactive | inactive | inactive | Non-Toxic
O=C1N[C@H](Cc2ccccc2)C(=O)N[C@H]1COCc1ccccc1 | inactive | inactive | inactive | Non-Toxic
O=C1N[C@H](COCc2ccccc2)C(=O)N[C@H]1COCc1ccccc1 | inactive | inactive | inactive | Non-Toxic
CC(C)C[C@@H]1NC(=O)[C@H](Cc2ccccc2)NC1=O | inactive | inactive | inactive | Non-Toxic
CC(C)C[C@@H]1NC(=O)[C@H](Cc2ccc(OCc3ccccc3)cc2)NC1=O | inactive | inactive | inactive | Non-Toxic
C[C@@H]1NC(=O)[C@@H](C)NC1=O | inactive | inactive | inactive | Non-Toxic

SMILES | inhibition [1] | inhibition [2] | inhibition [3] | growth inhibition (GI) [4]
O=C1N[C@@H](Cc2ccccc2)C(=O)N[C@H]1COCc1ccccc1 | inactive | inactive | inactive | Non-Toxic
CC(C)C[C@H]1NC(=O)[C@@H](Cc2ccccc2)NC1=O | inactive | inactive | inactive | Non-Toxic
CC(C)C[C@@H]1NC(=O)[C@@H](Cc2ccc(OCc3ccccc3)cc2)NC1=O | inactive | inactive | inactive | Non-Toxic
CC(C)C[C@@H]1NC(=O)[C@H](C)NC1=O | inactive | inactive | inactive | Non-Toxic
O=C1[C@@H]2CCCN2C(=O)[C@@H]2CCCN12 | inactive | inactive | inactive | Non-Toxic
CC(C)C[C@@H]1NC(=O)[C@H](CCCN(C(=N)N)[N+](=O)[O-])NC1=O | inactive | inactive | inactive | Non-Toxic
O=C1N[C@H](COCc2ccccc2)C(=O)N[C@@H]1COCc1ccccc1 | inactive | inactive | inactive | Non-Toxic
CC(C)[C@@H]1NC(=O)[C@H](C(C)C)NC1=O | inactive | inactive | inactive | Non-Toxic
N=C(N)NCCC[C@@H]1NC(=O)[C@H](Cc2ccc(O)cc2)NC1=O | inactive | inactive | inactive | Non-Toxic
CC(C)[C@@H]1NC(=O)[C@H](C)NC1=O | inactive | inactive | inactive | Non-Toxic
C[C@@H]1NC(=O)[C@H](Cc2ccc(OCc3ccccc3)cc2)NC1=O | inactive | inactive | inactive | Non-Toxic
CCC(C)[C@@H]1NC(=O)[C@H](Cc2ccccc2)NC1=O (some centres not stated) | inactive | inactive | inactive | Non-Toxic
CC(C)C[C@@H]1NC(=O)[C@@H](CC(C)C)NC1=O | inactive | inactive | inactive | Non-Toxic
C[C@H]1NC(=O)[C@@H](Cc2ccccc2)NC1=O | inactive | inactive | inactive | Non-Toxic
CCC(C)[C@@H]1NC(=O)[C@H](COCc2ccccc2)NC1=O (some centres not stated) | inactive | inactive | inactive | Non-Toxic
O=C(NCCCC[C@@H]1NC(=O)[C@H](CCCCNC(=O)OCc2ccccc2)NC1=O)OCc1ccccc1 | inactive | inactive | inactive | Non-Toxic
CC(C)C[C@H]1NC(=O)[C@@H](C(C)C)NC1=O | inactive | inactive | inactive | Non-Toxic
C[C@H]1NC(=O)[C@@H](Cc2ccc(OCc3ccccc3)cc2)NC1=O | inactive | inactive | inactive | Non-Toxic
C[C@@H]1NC(=O)[C@H](CCC(N)=O)NC1=O | inactive | inactive | inactive | Non-Toxic
CC(C)[C@@H]1NC(=O)[C@H](Cc2ccc(OCc3ccccc3)cc2)NC1=O | inactive | inactive | inactive | Non-Toxic
CC(C)C[C@H]1NC(=O)[C@@H](CC(C)C)NC1=O | inactive | inactive | inactive | Non-Toxic
CC(C)[C@@H]1NC(=O)[C@H](COCc2ccccc2)NC1=O | inactive | inactive | inactive | Non-Toxic
O=C1N[C@H](Cc2ccccc2)C(=O)N[C@@H]1COCc1ccccc1 | inactive | inactive | inactive | Non-Toxic
O=C1[C@@H]2CSCN2C(=O)[C@@H]2CSCN12 | inactive | inactive | inactive | Non-Toxic

From ChEMBL document CHEMBL4340502, “Anti-biofilm and anti-adherence properties of novel cyclic dipeptides against oral pathogens” (Bioorg Med Chem, 2019)
